Measurements published in paper PMC3095715 (Chemical biology & drug design, 2011).

Biological target: human C3 (Homo sapiens, UniProt P01024)
Experiment: Surface plasmon resonance
Format: binding
Conditions: SPR

Chain of human C3 (P01024 23-1663): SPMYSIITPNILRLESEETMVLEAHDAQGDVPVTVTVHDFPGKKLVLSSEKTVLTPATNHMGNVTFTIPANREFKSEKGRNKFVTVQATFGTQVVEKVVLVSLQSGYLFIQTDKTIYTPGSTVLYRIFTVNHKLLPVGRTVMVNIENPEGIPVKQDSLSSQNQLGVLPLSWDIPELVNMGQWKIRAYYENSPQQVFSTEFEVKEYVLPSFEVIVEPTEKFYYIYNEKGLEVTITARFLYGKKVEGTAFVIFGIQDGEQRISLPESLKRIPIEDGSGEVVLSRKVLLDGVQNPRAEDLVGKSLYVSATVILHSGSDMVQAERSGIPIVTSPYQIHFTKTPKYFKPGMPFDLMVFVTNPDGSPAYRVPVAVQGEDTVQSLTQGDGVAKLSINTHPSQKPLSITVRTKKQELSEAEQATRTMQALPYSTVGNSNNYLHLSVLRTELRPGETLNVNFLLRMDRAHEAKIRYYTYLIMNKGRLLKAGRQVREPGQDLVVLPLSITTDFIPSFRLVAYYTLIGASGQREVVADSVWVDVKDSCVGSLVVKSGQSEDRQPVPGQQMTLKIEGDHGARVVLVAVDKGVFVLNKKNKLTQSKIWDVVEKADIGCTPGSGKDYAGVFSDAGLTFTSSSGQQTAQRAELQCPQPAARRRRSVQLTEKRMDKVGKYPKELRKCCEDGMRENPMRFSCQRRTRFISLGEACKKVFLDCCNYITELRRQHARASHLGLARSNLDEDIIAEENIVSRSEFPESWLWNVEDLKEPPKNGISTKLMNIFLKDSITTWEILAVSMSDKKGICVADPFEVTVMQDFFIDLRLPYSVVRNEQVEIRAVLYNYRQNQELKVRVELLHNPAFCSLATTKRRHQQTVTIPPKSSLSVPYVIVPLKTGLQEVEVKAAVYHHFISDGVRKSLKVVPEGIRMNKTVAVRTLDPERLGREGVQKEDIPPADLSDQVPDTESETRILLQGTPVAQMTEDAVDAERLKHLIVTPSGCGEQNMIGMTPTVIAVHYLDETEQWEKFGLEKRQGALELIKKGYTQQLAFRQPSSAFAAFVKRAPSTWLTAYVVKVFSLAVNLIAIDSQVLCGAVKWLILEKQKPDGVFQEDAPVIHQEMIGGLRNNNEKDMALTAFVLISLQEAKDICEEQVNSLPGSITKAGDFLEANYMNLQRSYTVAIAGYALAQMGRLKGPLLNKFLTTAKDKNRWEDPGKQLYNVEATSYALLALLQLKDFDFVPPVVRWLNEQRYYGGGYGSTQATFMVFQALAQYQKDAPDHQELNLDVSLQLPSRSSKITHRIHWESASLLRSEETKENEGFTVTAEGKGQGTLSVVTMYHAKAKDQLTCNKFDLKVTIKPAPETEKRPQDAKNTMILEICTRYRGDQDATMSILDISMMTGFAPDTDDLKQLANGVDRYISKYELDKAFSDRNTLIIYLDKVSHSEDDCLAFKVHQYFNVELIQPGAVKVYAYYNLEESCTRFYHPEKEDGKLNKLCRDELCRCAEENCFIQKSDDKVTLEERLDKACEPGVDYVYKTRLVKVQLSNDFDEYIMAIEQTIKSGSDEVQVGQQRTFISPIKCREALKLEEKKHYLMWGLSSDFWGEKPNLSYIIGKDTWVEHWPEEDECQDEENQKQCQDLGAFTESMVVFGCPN

Binding to C3 (result in words): not to bind to C3
Substance: Ac-W[CVWQDWGAWRC]W-(PEG)8-K-(biotin)-NH2 (disulfide) [Peptide X]
